These results are taken from PubChem BioAssay (NCI).

Some test systems named below: OVCAR-3 ovarian; BT-549 breast; NCI-H226 lung; SK-OV-3 ovarian; ACHN renal; M14 melanoma; U251 CNS; IGROV1 ovarian; RPMI-8226 leukemia; UO-31 renal.
What all share (test): DTP human tumour cell line panel, 48 h

Molecules are shown by their SMILES.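 A five-concentration, 48-hour dose response in 96-well plates underlies each endpoint, interpolated linearly between surrounding concentrations. The concentration for 50% growth inhibition is given as GI50. TGI is the concentration that stops growth completely.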

As for `O=C(O)CN(CC(=O)O)Cc1cc(C#Cc2ccc(C#Cc3ccccc3)cc2)cc(CN(CC(=O)O)CC(=O)O)n1`, the total growth inhibition concentration (TGI) (usually the concentration at which net growth stops) in the test on OVCAR-3 ovarian is greater than 39.9 µM; with BT-549 breast it was 66.6 µM; in the test with NCI-H226 lung it was 58.7 µM; in the test with SK-OV-3 ovarian, greater than 100 µM; in the test on ACHN renal, 97.5 µM; in the test with M14 melanoma, greater than 76.6 µM. The total growth inhibition concentration (TGI) in the test on U251 CNS is 57.6 µM; with IGROV1 ovarian it was 78.1 µM; in the test with RPMI-8226 leukemia, 48.8 µM; in the test with UO-31 renal, greater than 79.7 µM.
Turning to `CCOC(=O)Nc1ccc2c(c1)/C(=N\NC(N)=S)c1ccccc1-2`, the GI50 – broadly, the concentration giving 50% growth inhibition – in the test on OVCAR-3 ovarian was 4.38 µM; in the test with BT-549 breast, 4.24 µM; in the test on NCI-H226 lung it was 4.43 µM; in the test with SK-OV-3 ovarian, 11.7 µM; in the test on ACHN renal, 3.87 µM; in the test with M14 melanoma, 4.69 µM. Also, the GI50 was 4.54 µM in the test with U251 CNS, 5.88 µM in the test with IGROV1 ovarian, 2.49 µM in the test with RPMI-8226 leukemia and 3.97 µM in the test with UO-31 renal. Besides, the TGI came to 27.8 µM with OVCAR-3 ovarian; 14.3 µM with BT-549 breast; 17.6 µM in the test on NCI-H226 lung; 44.8 µM with SK-OV-3 ovarian; 15.7 µM in the test with ACHN renal; 23.1 µM in the test with M14 melanoma. The TGI in the test with U251 CNS is 40.9 µM; in the test with IGROV1 ovarian, 28.1 µM; in the test with RPMI-8226 leukemia it was 12.9 µM; in the test with UO-31 renal, 14.2 µM.
